From paper PMC4914250, “Cancer therapeutic approach based on conformational stabilization of mutant p53 protein by small peptides” (Oncotarget, 2016)

Key:
H23 = assay: Crystal violet viability assay, H23; type: cell-based, human; set-up: key: score 0- no effect-white; score 6- as or more effective than positive control- black; conditions: score 0-6 compared to positive control, 48 h
Description: We also performed a similar analysis on ES2 ovarian cancer cells, which express endogenous mp53^S241F, compared to ES2 cells in which p53 was stably knocked out using CRISPR/Cas9 (ES2 p53KO Figure S1F), to control for specificity for mutp53 (Figure 2D). In ES2 cells, too, some of the peptides caused a significant reduction in cell numbers, more prominent in the mutp53 expressing cells than in their p53KO counterparts. […] Overall, we performed this analysis on several different mutp53-expressing human cancer cell lines, and the results are summarized in Table S3. Based on this comprehensive picture, we reduced the number of most promising candidate lead peptides to 30. These peptides were then synthesized with an 8 arginine C-terminal tail for enhanced delivery across cell membranes (pCAPs 130-160); for clarity, peptides are referred to by their original number, with an R for poly arginine (see Table S3).
Cells were cultured in 96 wells plates with 2500-4000 cells/well. Serial dilutions of different peptides were added and the plates incubated for additional 48 h at 37°C. Then medium was removed and cell viability was determined by staining the cells with crystal violet (0.05%) in methanol/PBS (1:5, v/v), for 10 min, followed by 3 washes with PBS. 10% acetic acid was added to each well for 10 min. OD was determined at 595 nm.

[1] = tested on: recombinant WTp53 or mutp53R175H; assay: ELISA of binding of WTp53 and mutp53 to plate-conjugated peptides; conditions: peptides conjugated to wells, peptides recruited preferentially WTp53
[2] = tested on: p53 target genes p21, PUMA and Mdm2 in H1299-tsp53^V135A cells; assay: Induction of p53 target genes by qRT-PCR, H1299-tsp53 cells; type: cell-based, human; conditions: peptide 5μg/ml, 18 hours, 37°C
Description: Since p53 works primarily as a transcription factor, we tested the ability of lead peptides to induce p53 target gene activation. To that end we used H1299-tsp53^V135A cells, which express temperature sensitive (ts) p53 and allow examination of WT and mutant p53 states in the same cellular background. In the representative experiment shown in Figure 3A, cells were exposed to the indicated peptides (5μg/ml) and then either transferred to 32°C or placed back at 37°C. Cells were harvested 18 hours later, and mRNA was extracted and subjected to qRT-PCR analysis. Expression levels of 3 representative p53 target genes, p21, PUMA and Mdm2, were examined. Values were normalized to non-treated cells at 37°C, and expression at 32°C, where the ts-p53 is in a WT conformation, served as positive control. […] A similar analysis was performed on ES2 ovarian cancer cells, expressing endogenous mp53^S241F, compared to ES2 p53KO cells (Figure 3B).
Figure 3 Peptides binding to p53 and their effect on the expression of p53 target genes A. - Bar graph illustrating the effect of selected peptides on activation of mutp53 by measuring transactivation of p53 target genes as determined by qRT-PCR. H1299 cells stably transfected with mutp53 (ts) A135V were used. The indicated peptides were added directly to the medium at a concentration of 5ug/ml and cells were then either moved to 32°C or returned to 37°C. 18 hours later cells were harvested, extracted for RNA, cDNA was synthesis subjected to qrt time PCR analysis. The expression level of 3 representative p53 target genes, p21, PUMA and Mdm2, were examined. The figure illustrates the relative fold induction of transcription of the cells treated with the selected peptides as compared to non-treated cells. B. - Bar graph illustrating the effect of selected peptides on activation of mutp53 by measuring transactivation of p53 target genes as determined by qRT-PCR. ES2and ES2-p53KO cells were treated with indicated peptides 5ug/ml, for 18 hours. Cells were harvested, and cDNA was subjected to qRT-PCR analysis. Expression of 4 representative p53 target genes, p21, PUMA, Mdm2 and CD95, was examined. The figure illustrates the relative fold induction of transcription in cells treated with the selected peptides compared to non-treated cells. C. - Binding of mutp53 to promoters of representative p53 target genes in live cells, assessed by chromatin immunoprecipitation. BT-549 breast cancer cells endogenously expressing mutant p53^R249S were treated for 5 hours with a mix of 3 pCAPs - 250, 242 and 325. […] DNA cross-linked p53 was immunoprecipitated, and binding to the p53 responsive elements of the PUMA, p21, CD95 and MDM2 gene promoters was quantified by qPCR. […] Results are presented as relative absorbance at 450nm. […]

Row | Substance | Viability H23 (H23) | recruitment of mutp53 lower than of WTp53 [1] | expression of the p53 target genes, H1299-tsp53 [2]
1 | myr-RRKHNKHRPEPDSDER [pCAP-221] | 6 | 50%-80% | –
2 | myr-RRIRDPRILLLHFD [pCAP-325] | 4 | – | –
3 | myr-RRKILFIRLMHNKH [pCAP-227, myristoylated peptide, similarity to GAS2] | 3 | – | –
4 | myr-PRVLPSPHTIHPSQYP [pCAP-229, myristoylated peptide, similarity to HIPK2] | 3 | – | –
5 | WNHHHSTPHPAHRRRRRR [pCAP-97R, pCAP-97 with poly arginine tail] | – | – | significant increase
6 | LRCLLLLIGRVGRRRRRRRR [pCAP-24R, pCAP-24 with poly arginine tail] | – | – | significant increase
7 | myr-RRLIVRILKLPNPPER [pCAP-242] | 6 | 50%-80% | –
8 | HHPWTHHQRWS [pCAP-20] | 4 | – | –
9 | SFILFIRRGRLGRRRRRRRRR [pCAP-60R, pCAP-60 with poly arginine tail] | 4 | – | significant increase
10 | IRGRIIR [pCAP-54] | – | – | significant increase
